Source: PMC5936756, “Ionizing Radiation Induces Morphological Changes and Immunological Modulation of Jurkat Cells” (Frontiers in Immunology, 2018)

Experiments:
Jurkat cells [1] = assay: Determination of cell diameter of Jurkat cells (EVE automatic cell counter); assay type: cell-based, human
Method: Cell diameters were measured with an EVE automatic cell counter (NanoEnTek, Seoul, South Korea). For cell diameter studies, a suitable protocol for Jurkat cells was established and all measurements were validated by visual inspection and if necessary corrected by hand using a personal computer based software. Viability was estimated by using trypan blue exclusion assays.
Cells were exposed to X-ray irradiation in cell culture flasks using an Isovolt 160 Titan E source with a voltage of 90 kV and 33.7 mA (GE Sensing & Inspection Technologies, Alzenau, Germany). Doses were delivered at a 30 cm source to probe distance with cell culture flasks placed on a 2 mm aluminum sheet. CDK1-inhibitor RO3306 (Axon Medchem, Groningen, Netherlands) was dissolved in DMSO at 14.2 mM and added to the cell culture medium in a final concentration of 3 µM. Cyclosporin A (Sigma-Aldrich) was dissolved in ddH2O and added to the cell culture medium of non-irradiated control cells or directly after irradiation of cells in a concentration of 1 µM. The cell permeable Ca^2+ buffer BAPTA-AM [1,2-Bis(2-aminophenoxy)ethane-N,N,N',N'-tetraacetic acid tetrakis(acetoxymethyl) ester, Thermo Fisher] was added to the cell culture medium 30 min prior to cell irradiation at 50 µM and was removed immediately after irradiation. Phytohemagglutinin (PHA-L) was purchased from Biochrom (Berlin, Germany). Cells were treated for 48 h by adding PHA-L to the cell culture medium at a concentration of 7.2 µg/ml. To activate human T-cells ImmunoCult™ Human CD3/CD28/CD2 T Cell Activator (Stem cell Technologies, Vancouver, BC, Canada) was added to the cell culture medium (25 µL per 1 mL of cell suspension) and maintained at 37°C and 5% CO2 for 48 h. The KCa2.2-specific ion channel blocker Tamapin was purchased from Alomone Labs (Jerusalem, Israel) and dissolved in purified water and diluted in external solution for patch clamp experiments.

Jurkat cells [2] = assay: Cell cycle analysis by flow cytometry (PI DNA content, cells in G2); assay type: cell-based, human; conditions: non-irradiated Jurkat cells, 3 µM RO3306
Method: (§1) Cells were exposed to X-ray irradiation in cell culture flasks using an Isovolt 160 Titan E source with a voltage of 90 kV and 33.7 mA (GE Sensing & Inspection Technologies, Alzenau, Germany). Doses were delivered at a 30 cm source to probe distance with cell culture flasks placed on a 2 mm aluminum sheet. CDK1-inhibitor RO3306 (Axon Medchem, Groningen, Netherlands) was dissolved in DMSO at 14.2 mM and added to the cell culture medium in a final concentration of 3 µM. Cyclosporin A (Sigma-Aldrich) was dissolved in ddH2O and added to the cell culture medium of non-irradiated control cells or directly after irradiation of cells in a concentration of 1 µM. The cell permeable Ca^2+ buffer BAPTA-AM [1,2-Bis(2-aminophenoxy)ethane-N,N,N',N'-tetraacetic acid tetrakis(acetoxymethyl) ester, Thermo Fisher] was added to the cell culture medium 30 min prior to cell irradiation at 50 µM and was removed immediately after irradiation. […]
Flow cytometric analyses were performed after 48 h following irradiation with propidium iodide (PI) solution (4% PI stock, 0.5 mg/ml PI, 38 mM sodium citrate, pH 7), 5% RNAse A stock (RNAse A 5 mg/ml, Tris–HCl 10 mM, NaCl 15 mM, pH 7) using a BioRad S3 Cell Sorter and the FlowJo 10 software for analysis (FlowJo LLC). The percentage of cells in G2/M phases was determined by single-parameter histograms of DNA content.

[3] = test system: peripheral blood lymphocytes (PBL); assay: Determination of cell diameter of PBL after mitogen stimulation; assay type: cell-based, human; conditions: PHA-L 7.2 µg/ml, 48 h
Method: Jurkat cells (ACC 282) were purchased from the German Collection of Microorganisms and Cell Cultures (DSMZ, Braunschweig, Germany). The human EC line EA.hy926 (Crl-2922) was established by fusion of human umbilical vein ECs and the adenocarcinoma epithelial cell line A549 ([18]) and was purchased from ATCC (LGC Standards, Wesel, Germany). Cells were either grown in RPMI 1640 medium (Jurkat), supplemented with 10% heat inactivated fetal calf serum (FCS; PAA, Cölbe, Germany) and 2 mM L-glutamine or in Dulbecco’s modified Eagle’s medium (Invitrogen, Karlsruhe, Germany), supplemented with 10% FCS 50 U/ml penicillin and 5 µg/ml streptomycin (Sigma-Aldrich, Munich, Germany). PBL were isolated from buffy coats using density gradient centrifugation (Biochrom, Berlin, Germany). After centrifugation (40 min at 1,000 × g, RT) interphase cells were isolated, washed twice with PBS, and pelleted by centrifugation (300 × g, 10 min). For adhesion assays, Jurkat cells and PBL were biotinylated by incubation (15 min on ice) with a biotin-N-hydroxysuccinimid ester (NHS-biotin, 10 mg/ml, Sigma-Aldrich) and maintained in RPMI 1640 Medium with 20% FCS, 1% HEPES, and 1% penicillin/streptomycin prior to assays. […]
Cell diameters were measured with an EVE automatic cell counter (NanoEnTek, Seoul, South Korea). […]

KCa2.2 channels [4] = target: T1, KCa2.2 channels (Homo sapiens, UniProt Q9H2S1); assay: Whole cell patch clamp recording of background current Ib in Jurkat cells; assay type: cell-based; conditions: Tamapin 10 nM
T1 construct: This small current includes, among others, the voltage independent small conductance K^+ channel KCa2.2; endogenous in cells; host or cells: Jurkat cells (ACC 282, DSMZ)
Method: as §1, with “irradiation. Phytohemagglutinin (PHA-L) was purchased from Biochrom (Berlin, Germany). Cells were treated for 48 h by adding PHA-L to the cell culture medium at a concentration of 7.2 µg/ml.” for “irradiation.”
Membrane currents of cells were recorded in a whole cell configuration ([26]) using an EPC-9 amplifier (HEKA Electronics, Lambrecht, Germany). […] Currents were recorded and data analyzed with an EPC-9 amplifier and Patchmaster Software (all from Heka Electronic).

KCa2.2 channels [5] = conditions: cited from earlier work

T1 sequence (Q9H2S1 whole entry): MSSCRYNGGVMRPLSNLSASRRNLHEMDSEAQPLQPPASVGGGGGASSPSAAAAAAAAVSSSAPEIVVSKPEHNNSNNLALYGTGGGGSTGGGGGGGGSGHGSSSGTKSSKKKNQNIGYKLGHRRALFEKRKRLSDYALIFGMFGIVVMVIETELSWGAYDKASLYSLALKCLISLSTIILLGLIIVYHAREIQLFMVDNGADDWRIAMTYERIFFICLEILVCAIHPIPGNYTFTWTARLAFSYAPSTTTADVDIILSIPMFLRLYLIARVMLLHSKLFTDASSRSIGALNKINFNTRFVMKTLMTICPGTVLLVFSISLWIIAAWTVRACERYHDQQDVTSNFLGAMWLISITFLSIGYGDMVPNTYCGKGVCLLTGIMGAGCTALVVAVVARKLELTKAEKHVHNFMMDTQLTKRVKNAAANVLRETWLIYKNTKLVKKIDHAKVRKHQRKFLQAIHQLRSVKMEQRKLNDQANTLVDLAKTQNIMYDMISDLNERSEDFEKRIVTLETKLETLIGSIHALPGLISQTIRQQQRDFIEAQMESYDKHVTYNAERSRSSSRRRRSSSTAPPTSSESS

**Q.** For CC(=O)OCOC(=O)CN(CC(=O)OCOC(C)=O)c1ccccc1OCCOc1ccccc1N(CC(=O)OCOC(C)=O)CC(=O)OCOC(C)=O [BAPTA-AM, 1,2-Bis(2-aminophenoxy)ethane-N,N,N',N'-tetraacetic acid tetrakis(acetoxymethyl) ester], which “effect on radiation-induced increase in cell diameter” value (Jurkat cells [1]; Jurkat cells irradiated with 2 Gy, cyclosporine A 1 µM or BAPTA-AM 50 µM) is on record?
**A.** The value was “decreased the effect of irradiation”.

**Q.** And the “reduction of the radiation-induced cell diameter increase” value (Jurkat cells [1]; irradiated Jurkat cells, cyclosporine A 1 µM or BAPTA-AM 50 µM)?
**A.** The value was 50%.

**Q.** For O=C1NC(=NCc2cccs2)S/C1=C\c1ccc2ncccc2c1 [RO3306], which “cells arrested in G2 phase” value (Jurkat cells [2]) is on record?
**A.** The value was 71%.

**Q.** What about the “increase in cell diameter” value (Jurkat cells [1]; non-irradiated Jurkat cells, 3 µM RO3306) of the same compound?
**A.** Its value is 9.6 ± 3%.

**Q.** Which “fraction of cells with increased mean size” value ([3]; PBL from healthy donors, fit with two Gaussians) does the source give for Phytohemagglutinin [PHA-L] here?
**A.** The value was 45%.

**Q.** What about the “mean size (diameter) of the enlarged cell population” value ([3]; PBL, mock treated 7.2 µm) of the same compound?
**A.** The value was 10.2 µm.

**Q.** For “Tamapin: scorpion toxin, KCa2.2-specific ion channel blocker (Alomone Labs) (AFCNLRRCELSCRSLGLLGKCIGEECKCVPY; UniProt P59869 1-31, looked up)”, which “inhibition of Ib” value (KCa2.2 channels [4]; irradiated Jurkat cells (1.25 Gy, 48 h after X-ray)) is on record?
**A.** Its value is 23 ± 10%.

**Q.** What about the “inhibition of Ib” value (KCa2.2 channels [4]; mock-irradiated control Jurkat cells, N = 3) of the same compound?
**A.** Its value is 3.3 ± 0.7%.

**Q.** And the IC50 (KCa2.2 channels [5])?
**A.** Its IC50 is 0.024 nM.
